Measurements from patent US12691092B2, “Method for reducing cutaneous skin scarring by pre-emptive priming and compounds and compositions for its implementation” (SOS SCIENCE OF SKIN LTD, priority 2020, dated 2026).

How the values were obtained:
HBB, HBA1, HBA2 = experiment: mRNA sequencing of scar biopsies; format: in vivo, human; settings: group-1, week 4
Description: (§1) A double-blind randomized placebo-controlled trial was conducted using a temporal punch-biopsy model. The punch biopsy and topical application methodology used in the study is illustrated in FIG. 1, namely showing pre-injury pre-emptive priming (7-days), pre-injury pre-emptive priming (3-days), day of injury (immediate application on day 0), post-injury (delayed 2 weeks post injury) including biopsy time points and time of topical applications. Each group applied both placebo and topical formulations twice daily for the duration of the study until week 8, with only the starting time point differing between groups Participants were split into 4 groups (n=10 in each group) in order to compare different modes (timings) of commencement of the topical application: • Group-1: Pre-emptive Priming (7-days): pre-injury • Group-2: Pre-emptive Priming (3-days): pre-injury • Group-3: Immediate (0-day): day-of-injury • Group-4: Delayed (14-days): post-injury Clinical quantitative devices were used to objectively monitor cutaneous healing at weekly intervals and punch biopsies were performed on day 0 (uninjured skin) and at weeks 4 and 8 for protein and gene expression analyses. […] Excisional skin biopsies in upper arms were evaluated weekly with multiple quantitative devices over an 8-week period. […]

langerin = experiment: Langerin immunohistochemical marker in scar biopsies; format: in vivo, human; settings: week 4, group-1 only (7-day pre-injury priming), p=0.02
Description: as §1

[1] = tested on: human skin scarring model; experiment: Viscoelasticity of scars by clinical elastin probe; format: in vivo
Description: A double-blind randomized placebo-controlled trial was conducted using a temporal punch-biopsy model. The punch biopsy and topical application methodology used in the study is illustrated in FIG. 1, namely showing pre-injury pre-emptive priming (7-days), pre-injury pre-emptive priming (3-days), day of injury (immediate application on day 0), post-injury (delayed 2 weeks post injury) including biopsy time points and time of topical applications. Each group applied both placebo and topical formulations twice daily for the duration of the study until week 8, with only the starting time point differing between groups Participants were split into 4 groups (n=10 in each group) in order to compare different modes (timings) of commencement of the topical application: • Group-1: Pre-emptive Priming (7-days): pre-injury • Group-2: Pre-emptive Priming (3-days): pre-injury • Group-3: Immediate (0-day): day-of-injury • Group-4: Delayed (14-days): post-injury Clinical quantitative devices were used to objectively monitor cutaneous healing at weekly intervals and punch biopsies were performed on day 0 (uninjured skin) and at weeks 4 and 8 for protein and gene expression analyses. In the trial, topical EGCG and a placebo topical were applied twice daily for the duration of the trial until week 8 with only the starting time points differing between groups. […]

MCT and MCC = experiment: QRT-PCR of MCT and MCC in scar biopsies; format: in vivo, human; settings: week 4, all groups, p<0.05
Description: A double-blind randomized placebo-controlled trial was conducted using a temporal punch-biopsy model. The punch biopsy and topical application methodology used in the study is illustrated in FIG. 1, namely showing pre-injury pre-emptive priming (7-days), pre-injury pre-emptive priming (3-days), day of injury (immediate application on day 0), post-injury (delayed 2 weeks post injury) including biopsy time points and time of topical applications. Each group applied both placebo and topical formulations twice daily for the duration of the study until week 8, with only the starting time point differing between groups Participants were split into 4 groups (n=10 in each group) in order to compare different modes (timings) of commencement of the topical application: • Group-1: Pre-emptive Priming (7-days): pre-injury • Group-2: Pre-emptive Priming (3-days): pre-injury • Group-3: Immediate (0-day): day-of-injury • Group-4: Delayed (14-days): post-injury Clinical quantitative devices were used to objectively monitor cutaneous healing at weekly intervals and punch biopsies were performed on day 0 (uninjured skin) and at weeks 4 and 8 for protein and gene expression analyses. […] Excisional skin biopsies in upper arms were evaluated weekly with multiple quantitative devices over an 8-week period. […] MCT, MCC and CKit quantitative measurements are expressed in mm^2.

Fc epsilon RI (FcεRI) = experiment: Fc epsilon RI immunohistochemical marker in scar biopsies; format: in vivo, human; settings: week 4, all groups, p<0.01
Description: as §1

VEGF-A = VEGF-A angiogenic immunohistochemical marker in scar biopsies; format: in vivo, human
Description: A double-blind randomized placebo-controlled trial was conducted using a temporal punch-biopsy model. The punch biopsy and topical application methodology used in the study is illustrated in FIG. 1, namely showing pre-injury pre-emptive priming (7-days), pre-injury pre-emptive priming (3-days), day of injury (immediate application on day 0), post-injury (delayed 2 weeks post injury) including biopsy time points and time of topical applications. Each group applied both placebo and topical formulations twice daily for the duration of the study until week 8, with only the starting time point differing between groups Participants were split into 4 groups (n=10 in each group) in order to compare different modes (timings) of commencement of the topical application: • Group-1: Pre-emptive Priming (7-days): pre-injury • Group-2: Pre-emptive Priming (3-days): pre-injury • Group-3: Immediate (0-day): day-of-injury • Group-4: Delayed (14-days): post-injury Clinical quantitative devices were used to objectively monitor cutaneous healing at weekly intervals and punch biopsies were performed on day 0 (uninjured skin) and at weeks 4 and 8 for protein and gene expression analyses. In the trial, topical EGCG and a placebo topical were applied twice daily for the duration of the trial until week 8 with only the starting time points differing between groups. Clinical and experimental analysis involved use of non-invasive devices as well as protein and gene studies. Excisional skin biopsies in upper arms were evaluated weekly with multiple quantitative devices over an 8-week period. […] In order to further support these findings and the clinical findings, two well-known and established angiogenic immunohistochemical markers; CD31 and VEGF-A were used.

O=C(OC1Cc2c(O)cc(O)cc2OC1c1cc(O)c(O)c(O)c1)c1cc(O)c(O)c(O)c1 (single isomer, unassigned; (-)) [EGCG, (-)-epigallocatechin-3-gallate]
mRNA sequencing: HBB, HBA1 and HBA2 expression with EGCG compared to placebo (HBB, HBA1, HBA2): reduced | langerin reduction in EGCG-treated samples compared to placebo (langerin): 13% | Elasticity (viscoelasticity), EGCG-treated arms compared to placebo-treated arms ([1]; group-1 weeks 1, 7, 8, group-2 week 8, group-3 week 8, group-4 week 7): significantly increased | Elasticity, between group comparison, group-1 vs group-4 ([1]; week 8, p=0.029): significantly increased elastin more than group-4 | QRT-PCR MCC expression, EGCG-treated samples (MCT and MCC): down-regulation | QRT-PCR MCT expression, EGCG-treated samples (MCT and MCC): down-regulation | FcεRI in EGCG-treated samples compared to placebo (Fc epsilon RI (FcεRI)): significant reduction | VEGF-A in EGCG-treated samples compared to placebo (VEGF-A; week 4, all groups, p<0.01): significantly down-regulated | VEGF-A: greater reduction in group-2 compared to group-4 (VEGF-A; week 4, 3-day priming vs delayed, p=0.01): 56% | VEGF-A: greater reduction in group-1 compared to group-4 (VEGF-A; week 4, 7-day priming vs delayed, p=0.005): 51% | VEGF-A in EGCG-treated samples (VEGF-A; week 8, groups 1-3, p<0.01): significant reduction
